Test system: EpidermFT™ Skin Model (EFT-400) full thickness skin cultures
Experiment: Affymetrix GeneChip HG U133 Plus 2.0 microarray global gene expression, agent-exposed vs untreated skin cultures
Assay type: cell-based, human
[1] = probe 206026_s_at, Table 3 skin structure
[2] = probe 209126_x_at, Table 3 skin structure
[3] = probe 209792_s_at, Table 3 skin structure

OCc1ccccc1O[C@@H]1O[C@H](CO)[C@@H](O)[C@H](O)[C@H]1O [Salicin, 2-(Hydroxymethyl)phenyl β-D-glucospyranoside]
Direction PTPRG (probe 204944_at, 0.5%, 24 hr): up | Fold change PTPRG (probe 204944_at, 0.5%, 24 hr): 2.299 | Direction ITGB4 (probe 204990_s_at, 0.5%, 24 hr): down | Fold change ITGB4 (probe 204990_s_at, 0.5%, 24 hr): 4.527 | Direction FGFBP1 (probe 205014_at, 0.5%, 24 hr): down | Fold change FGFBP1 (probe 205014_at, 0.5%, 24 hr): 3.406 | Direction TGFA (probe 205015_s_at, 0.5%, 24 hr): down | Fold change TGFA (probe 205015_s_at, 0.5%, 24 hr): 3.134 | Direction FGF13 (probe 205110_s_at, 0.5%, 24 hr): up | Fold change FGF13 (probe 205110_s_at, 0.5%, 24 hr): 2.158 | Direction PTGS1 (probe 205128_x_at, 0.5%, 24 hr): up | Fold change PTGS1 (probe 205128_x_at, 0.5%, 24 hr): 2.327 | Direction IL6 (probe 205207_at, 0.5%, 24 hr): up | Fold change IL6 (probe 205207_at, 0.5%, 24 hr): 3.197 | Direction LIF (probe 205266_at, 0.5%, 24 hr): up | Fold change LIF (probe 205266_at, 0.5%, 24 hr): 3.702 | Direction ATP2B4 (probe 205410_s_at, 0.5%, 24 hr): up | Fold change ATP2B4 (probe 205410_s_at, 0.5%, 24 hr): 3.984 | Direction KLK11 (probe 205470_s_at, 0.5%, 24 hr): down | Fold change KLK11 (probe 205470_s_at, 0.5%, 24 hr): 3.318 | Direction TAGLN (probe 205547_s_at, 0.5%, 24 hr): up | Fold change TAGLN (probe 205547_s_at, 0.5%, 24 hr): 2.426 | Direction EREG (probe 205767_at, 0.5%, 24 hr): up | Fold change EREG (probe 205767_at, 0.5%, 24 hr): 2.487 | Direction FGF7 (probe 205782_at, 0.5%, 24 hr): up | Fold change FGF7 (probe 205782_at, 0.5%, 24 hr): 3.158 | Direction KLK13 (probe 205783_at, 0.5%, 24 hr): down | Fold change KLK13 (probe 205783_at, 0.5%, 24 hr): 3.619 | Direction CLGN (probe 205830_at, 0.5%, 24 hr): up | Fold change CLGN (probe 205830_at, 0.5%, 24 hr): 2.486 | Direction KRT1 (probe 205900_at, 0.5%, 24 hr): down | Fold change KRT1 (probe 205900_at, 0.5%, 24 hr): 4.141 | Direction CREB5 (probe 205931_s_at, 0.5%, 24 hr): up | Fold change CREB5 (probe 205931_s_at, 0.5%, 24 hr): 9.909 | Direction IL15 (probe 205992_s_at, 0.5%, 24 hr): up | Fold change IL15 (probe 205992_s_at, 0.5%, 24 hr): 4.326 | Direction TNFAIP6 (probe 206025_s_at, 0.5%, 24 hr): up | Fold change TNFAIP6 (probe 206025_s_at, 0.5%, 24 hr): 3.182 | Direction TNFAIP6 [1]: up | Fold change TNFAIP6 [1]: 2.52 | Direction DSC3 (probe 206033_s_at, 0.5%, 24 hr): down | Fold change DSC3 (probe 206033_s_at, 0.5%, 24 hr): 4.676 | Direction BMP6 (probe 206176_at, 0.5%, 24 hr): up | Fold change BMP6 (probe 206176_at, 0.5%, 24 hr): 7.765 | Direction CDSN (probe 206193_s_at, 0.5%, 24 hr): down | Fold change CDSN (probe 206193_s_at, 0.5%, 24 hr): 11.11 | Direction MAP3K13 (probe 206249_at, 0.5%, 24 hr): up | Fold change MAP3K13 (probe 206249_at, 0.5%, 24 hr): 2.252 | Direction IL18 (probe 206295_at, 0.5%, 24 hr): down | Fold change IL18 (probe 206295_at, 0.5%, 24 hr): 19.31 | Direction CCL13 (probe 206407_s_at, 0.5%, 24 hr): up | Fold change CCL13 (probe 206407_s_at, 0.5%, 24 hr): 5.516 | Direction F2RL1 (probe 206429_at, 0.5%, 24 hr): down | Fold change F2RL1 (probe 206429_at, 0.5%, 24 hr): 2.099 | Direction IL24 (probe 206569_at, 0.5%, 24 hr): up | Fold change IL24 (probe 206569_at, 0.5%, 24 hr): 8.737 | Direction IL18R1 (probe 206618_at, 0.5%, 24 hr): up | Fold change IL18R1 (probe 206618_at, 0.5%, 24 hr): 2.865 | Direction HAL (probe 206643_at, 0.5%, 24 hr): down | Fold change HAL (probe 206643_at, 0.5%, 24 hr): 55.87 | Direction DGKI (probe 206806_at, 0.5%, 24 hr): up | Fold change DGKI (probe 206806_at, 0.5%, 24 hr): 2.74 | Direction IL11 (probe 206924_at, 0.5%, 24 hr): up | Fold change IL11 (probe 206924_at, 0.5%, 24 hr): 9.694 | Direction IL8RB (probe 207008_at, 0.5%, 24 hr): down | Fold change IL8RB (probe 207008_at, 0.5%, 24 hr): 11.11 | Direction DSC1 (probe 207324_s_at, 0.5%, 24 hr): down | Fold change DSC1 (probe 207324_s_at, 0.5%, 24 hr): 12.95 | Direction PTGES (probe 207388_s_at, 0.5%, 24 hr): up | Fold change PTGES (probe 207388_s_at, 0.5%, 24 hr): 2.768 | Direction CSF3 (probe 207442_at, 0.5%, 24 hr): up | Fold change CSF3 (probe 207442_at, 0.5%, 24 hr): 11.09 | Direction IL1RL1 (probe 207526_s_at, 0.5%, 24 hr): up | Fold change IL1RL1 (probe 207526_s_at, 0.5%, 24 hr): 9.09 | Direction LCE2B (probe 207710_at, 0.5%, 24 hr): down | Fold change LCE2B (probe 207710_at, 0.5%, 24 hr): 200.5 | Direction LOR (probe 207720_at, 0.5%, 24 hr): down | Fold change LOR (probe 207720_at, 0.5%, 24 hr): 32.35 | Direction KRT9 (probe 208188_at, 0.5%, 24 hr): down | Fold change KRT9 (probe 208188_at, 0.5%, 24 hr): 2.539 | Direction SPRR2B (probe 208539_x_at, 0.5%, 24 hr): down | Fold change SPRR2B (probe 208539_x_at, 0.5%, 24 hr): 5.554 | Direction PDE3B (probe 208591_s_at, 0.5%, 24 hr): up | Fold change PDE3B (probe 208591_s_at, 0.5%, 24 hr): 2.851 | Direction FADS1 (probe 208962_s_at, 0.5%, 24 hr): up | Fold change FADS1 (probe 208962_s_at, 0.5%, 24 hr): 2.889 | Direction KRT6A (probe 209125_at, 0.5%, 24 hr): down | Fold change KRT6A (probe 209125_at, 0.5%, 24 hr): 2.034 | Direction KRT6B [2]: down | Fold change KRT6B [2]: 3.952 | Direction TM4SF1 (probe 209387_s_at, 0.5%, 24 hr): up | Fold change TM4SF1 (probe 209387_s_at, 0.5%, 24 hr): 3.187 | Direction SPON1 (probe 209437_s_at, 0.5%, 24 hr): up | Fold change SPON1 (probe 209437_s_at, 0.5%, 24 hr): 2.36 | Direction CALM1 /// CALM2 /// CALM3 (probe 209563_x_at, 0.5%, 24 hr): down | Fold change CALM1 /// CALM2 /// CALM3 (probe 209563_x_at, 0.5%, 24 hr): 2.029 | Direction GATA3 (probe 209602_s_at, 0.5%, 24 hr): down | Fold change GATA3 (probe 209602_s_at, 0.5%, 24 hr): 15.7 | Direction CXCL2 (probe 209774_x_at, 0.5%, 24 hr): up | Fold change CXCL2 (probe 209774_x_at, 0.5%, 24 hr): 7.546 | Direction CASP6 (probe 209790_s_at, 0.5%, 24 hr): down | Fold change CASP6 (probe 209790_s_at, 0.5%, 24 hr): 2.668 | Direction KLK10 [3]: down | Fold change KLK10 [3]: 4.49 | Direction PKP3 (probe 209873_s_at, 0.5%, 24 hr): down | Fold change PKP3 (probe 209873_s_at, 0.5%, 24 hr): 4.615 | Direction CALML3 (probe 210020_x_at, 0.5%, 24 hr): down | Fold change CALML3 (probe 210020_x_at, 0.5%, 24 hr): 11.27 | Direction CSF2 (probe 210229_s_at, 0.5%, 24 hr): up | Fold change CSF2 (probe 210229_s_at, 0.5%, 24 hr): 16.55 | Direction FLT1 (probe 210287_s_at, 0.5%, 24 hr): up | Fold change FLT1 (probe 210287_s_at, 0.5%, 24 hr): 3.95 | Direction HYAL1 (probe 210619_s_at, 0.5%, 24 hr): down | Fold change HYAL1 (probe 210619_s_at, 0.5%, 24 hr): 4.538

Reference: US20120034613A1, “Apparatus and Method for Testing Relationships Between Gene Expression and Physical Appearance of Skin” (NSE Products, Inc., priority 2010, published 2012)
